Experimental data published in paper PMC12302339 (Journal of Advanced Research, 2024).
Converted amounts (≈) assume the structure as drawn.

How the values were obtained:
[1] = tested on: A549, human non-small cell lung cancer cells; test: cells; assay type: cell-based
p42 = assay type: binding, Xanthomonas oryzae pv. oryzae
in vivo = details: Brachydanio rerio (zebrafish)
rice = details: in vivo

Q: With O=c1[nH]cc(F)c(=O)[nH]1 [5-FU, 5-fluorouracil, reference compound] as the compound, how does the IC50 [1] read?
A: The IC50 was 1.42 µM.

Q: Which “proteome labeling in situ or in vitro” value (p42) does the source give for C#CCNc1ncnc2ccccc12 [NP, N-(prop-2-yn-1-yl)quinazolin-4-amine] here?
A: The value was “failed to label any proteins”.

Q: For C=CC(=O)Nc1ncnc2ccc(Br)cc12 [compound 7a, N-(6-bromoquinazolin-4-yl)acrylamide], which LC50 at 48 h (in vivo) is on record?
A: Its LC50 at 48 h is 0.53 µg/mL (≈ 1.91 µM).

Q: What about the LC50 at 72 h (in vivo) of the same compound?
A: The LC50 at 72 h was 0.48 µg/mL (≈ 1.73 µM).

Q: And the LC50 at 96 h (in vivo)?
A: Its LC50 at 96 h is 0.48 µg/mL (≈ 1.73 µM).

Q: What about the IC50 [1] of the same compound?
A: Its IC50 is 23.1 µM.

Q: What about the “competition of probe P1 labeling of p42” value (p42) of the same compound?
A: Its value is “dose-dependently competed”.

Q: What about the “phytotoxicity on rice leaves” value (rice) of the same compound?
A: The value was “no signs of damage”.

Q: With C#CCN(C(=O)C=C)c1ncnc2ccc(Br)cc12 [probe P1, N-(6-bromoquinazolin-4-yl)-N-(prop-2-yn-1-yl)acrylamide] as the compound, how does the “proteome labeling in situ or in vitro” value (p42) read?
A: Its value is “prominent labeling”.

Q: And the “time after which p42 was visualized” value (p42)?
A: The value was 5 min.

Q: And the “time to complete labeling of p42” value (p42)?
A: Its value is 2 h.
